Results on one compound are retold here after article PMC12445744, “Molecular docking to homology models of human and Trypanosoma brucei ERK8 that identified ortholog-specific inhibitors” (PLOS Neglected Tropical Diseases, 2025).

The assay has as its target T1, TbERK8 (Trypanosoma brucei brucei, UniProt Q38B88).
T1 sequence (Q38B88 1-442): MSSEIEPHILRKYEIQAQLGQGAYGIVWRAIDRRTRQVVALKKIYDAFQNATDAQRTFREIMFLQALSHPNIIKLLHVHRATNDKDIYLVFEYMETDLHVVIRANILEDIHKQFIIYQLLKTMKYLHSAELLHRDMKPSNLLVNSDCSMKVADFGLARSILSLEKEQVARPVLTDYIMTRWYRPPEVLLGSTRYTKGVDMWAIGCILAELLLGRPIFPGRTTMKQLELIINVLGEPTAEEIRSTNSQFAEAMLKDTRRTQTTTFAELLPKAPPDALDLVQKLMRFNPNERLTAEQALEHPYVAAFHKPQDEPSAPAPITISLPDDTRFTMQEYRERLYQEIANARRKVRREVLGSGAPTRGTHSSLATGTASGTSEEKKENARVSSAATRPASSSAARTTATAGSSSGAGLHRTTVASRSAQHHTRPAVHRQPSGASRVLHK
Kind of assay: Luciferase-based kinase inhibition assay (ATP luminescence), GST-tagged TbERK8 with MBP substrate. The assay is classed as biochemical. On the set-up: raw luminescence, TbERK8: unit of the concentration uncertain. The settings on record: for raw luminescence, TbERK8: sheet Kinase_glo_080924_IFPS (2), replicate wells, listed as Ida. As to the method:
Escherichia coli strain Rosetta 2 (DE3) (Cat# 71397, MilliporeSigma, Burlington, MA) was transformed with the plasmid pGEX2T expressing the full-length hERK8 coding region or pGSTAg expressing the full-length TbERK8 coding region. One liter of Terrific Broth media containing 100 μg/ml Ampicillin and 30 μg/ml chloramphenicol in 2 L baffled flasks was inoculated with 25 mL from an overnight culture of Rosetta 2 strains harboring either the pGEX2T-hERK8 or pGSTAg-TbERK8 plasmid. Two baffled flasks were inoculated with each overnight strain and incubated and shaken at 175 RPM in a New Brunswick Innova 44R Incubator Shaker (Fischer Scientific, Pittsburgh, PA) at 37 °C until the cultures reached an O.D.600 of 0.94. Once the cultures in the flask reached the target O.D.600, the flasks were cooled to 4 °C in an ice water bath. The cooled cultures were induced by adding isopropyl β-D-1-thiogalactopyranoside (IPTG) to a final concentration of 0.1 mM and shaken at 16 °C for 16 hours at 175 RPM in a New Brunswick Innova 44R Incubator Shaker (Fischer Scientific, Pittsburgh, PA). On the next day, the cultures were pelleted by centrifugation at 9000 xg in a JLA 10.500 rotor (Beckman Coulter; Brea, CA), and the media was decanted. The pellet was flash-frozen in liquid nitrogen and then thawed on ice. The thawed pellet was resuspended in lysis buffer (25 mM Tris, 75 mM NaCl, 0.5% TritonX-100 and 0.5% Nonidet P-40, 1 mM phenylmethanesulfonyl fluoride, 1 mM benzamidine⋅HCl) and lysed using a microfluidizer M-110P from Microfluidics (Westwood, MA). The crude lysates were clarified by centrifugation at 140,000 xg in a 45Ti rotor (Beckman Coulter, Brea, CA) for 30 min at 4°C. The clarified lysate was loaded by gravity to a 3 mL glutathione agarose resin column (Cat# G-250–10, GOLDBIO, St. Louis, MO) formed in a 1.5 × 20 cm glass chromatography column (Cat# 7371522, Bio-Rad, Hercules, CA). The column was washed with 30 mL of PBS (pH 7.4) containing 1 mM DTT. Elution buffer (50 mM Tris buffer pH 8.0 containing 10 mM reduced glutathione and 1 mM DTT was added to the washed column), and 1 mL fractions were collected by gravity and examined by SDS-PAGE stained by Coomassie dye. Peak fractions pooled from the elution were dialyzed (4x 1:500 dilutions) in kinase buffer (30 mM Tris, pH 7.4, 10 mM MgCl2, 1 mM DTT, 5% glycerol).
We performed kinase assays in buffer K (30 mM Tris pH 7.4, 10 mM MgCl2, 1 mM DTT, 5% glycerol, 50 μM ATP, and 0.1 mg/mL BSA) at 30°C for 30 min in 30 μL reactions. GST-tagged HsERK8 and TbERK8 were tested using myelin basic protein (MBP) (Cat# 13–110, Millipore, Darmstadt, Germany) as the substrate at increasing concentrations to determine the optimal activity for the assay. ATP consumption was determined by adding equal volumes of the kinase assay reagent (Promega, Cat# V5601, Madison, WI) following the manufacturer’s protocol. Luminescence was measured using the microplate reader (SpectraMax L, Molecular Devices, Sunnyvale, CA).
These compounds were screened for kinase inhibition utilizing a luciferase-based assay. Briefly, the kinases were tested using MBP as the substrate at a 14-fold molar excess in 384-well flat-bottom white plates (BRANDTECH Scientific, Cat# 781681, Essex, CT). These compounds were tested at concentrations ranging from […] to 150 nM. The kinases plus MBP substrate reactions were incubated with each inhibitor for 30 minutes at 30°C. Equal volumes of kinase assay mix Promega (Cat# V5601, Madison, WI) were added to the kinase/inhibitor reaction after 30 minutes, following the manufacturer’s protocol. ATP luminescence was measured using a microplate reader (SpectraMax L, Molecular Devices, Sunnyvale, CA). IC50 values were calculated from assays done in triplicate by fitting the data using Prism 8.1.1 (GraphPad).

Several values for one entry are separate records, joined by “and”; a condition that tells them apart may be missing. Equal values may be shown once.

As to `CC(=O)[C@]1(O)Cc2c(O)c3c(c(O)c2[C@@H](O[C@H]2C[C@H](N)[C@H](O)[C@H](C)O2)C1)C(=O)c1ccccc1C3=O` [Idarubicin], the “raw luminescence, TbERK8” value runs as follows: (0.00015 (unit uncertain) compound) 2715.27 RLU and 2728.74 RLU and 2394.11 RLU; (0.00061 (unit uncertain) compound) 1071.28 RLU and 918.564 RLU and 956.744 RLU; (0.00244 (unit uncertain) compound) 1109.46 RLU and 1118.45 RLU and 925.302 RLU; (0.00977 (unit uncertain) compound) 992.678 RLU and 972.465 RLU and 952.252 RLU; (0.03906 (unit uncertain) compound) 1019.63 RLU and 976.957 RLU and 1073.53 RLU; (0.15625 (unit uncertain) compound) 1318.33 RLU and 1147.64 RLU and 1078.02 RLU. The “raw luminescence, TbERK8” value (0.62500 (unit uncertain) compound) was 2223.42 RLU and 1980.86 RLU and 1909 RLU; the “raw luminescence, TbERK8” value (2.50000 (unit uncertain) compound) is 2212.19 RLU and 2209.94 RLU and 2311.01 RLU; the “raw luminescence, TbERK8” value (10.00000 (unit uncertain) compound, signal = ATP left) was 619.862 RLU and 786.057 RLU and 752.369 RLU. Also, the “inhibitory effect on kinase activity of TbERK8” value (concentrations below 4.0 x10^-5 M (above this the red compound blocked luminescence)) is on record as “no detectible (n/d) inhibitory effect”.
